From US20230399312A1, “SUBSTITUTED PYRIMIDINES AND METHODS OF USE” (THERAVANCE BIOPHARMA R&D IP, LLC, priority 2020, published 2023) come the findings set out here.

Assay [1] has as its target T1, recombinant human ALK5 (TGF-βR1) protein (Homo sapiens, UniProt P36897).
T1 construct: purchased Life Technologies PR9075A
T1 sequence (P36897 34-503): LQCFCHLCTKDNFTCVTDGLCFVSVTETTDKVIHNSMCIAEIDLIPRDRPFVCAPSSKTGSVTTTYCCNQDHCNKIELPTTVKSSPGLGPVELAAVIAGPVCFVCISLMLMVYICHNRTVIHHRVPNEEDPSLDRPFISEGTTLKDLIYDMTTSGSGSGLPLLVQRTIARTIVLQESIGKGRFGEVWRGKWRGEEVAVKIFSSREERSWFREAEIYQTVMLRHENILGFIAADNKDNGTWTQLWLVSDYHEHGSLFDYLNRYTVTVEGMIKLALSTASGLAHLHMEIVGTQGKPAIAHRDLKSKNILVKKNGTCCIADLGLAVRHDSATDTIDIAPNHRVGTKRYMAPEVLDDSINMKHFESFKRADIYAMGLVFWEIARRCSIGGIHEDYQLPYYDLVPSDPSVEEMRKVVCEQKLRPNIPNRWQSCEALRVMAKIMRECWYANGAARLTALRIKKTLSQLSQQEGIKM
The experiment in a line: Biochemical ALK5 (TGF-βR1) assay to measure pKi (LANCE Ultra ULight kinase assay). As to conditions: apparent pKi, converted from pIC50 by Cheng-Prusoff. Summed up: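 Read-out was LANCE Ultra TR-FRET with a europium anti-phospho-Topo IIα Thr1342 antibody after EDTA quench. Kinase reaction ran 60 min at 37 °C with ATP added from a 125 μM 5× stock, after 60 min compound–enzyme equilibration at room temperature. Values are pKi from Cheng-Prusoff conversion of fitted pIC50.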
For orientation: Time-resolved FRET reads energy transfer from a long-lived donor to a nearby acceptor.

Assay [2] has as its system TGF-β-stimulated SMAD3 phosphorylation in BEAS-2B cells. The experiment in a line: Cellular ALK5 potency assay, inhibition of TGF-β stimulated pSMAD3 formation in BEAS-2B cells. In kind it is cell-based. As to conditions: Homo sapiens, pSMAD3, TGF-β 10 ng/mL, read-out: BEAS2B pIC50 (converted). The gist of the method:
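Read-out is AlphaLISA detection of phospho-SMAD3 in lysates of BEAS-2B human lung epithelial cells. Cells are exposed to compound for 1 hour, then to 10 ng/mL TGF-β (final) for 30 minutes. Values are pIC50 from concentration–response curves.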

`Cc1cccc(-c2nccc(Nc3ccnc(Nc4cc(C(=O)O[C@H]5CCNC5)ccn4)n3)n2)n1` [Compound 632, [(3S)-pyrrolidin-3-yl] 2-[[4-[[2-(6-methyl-2-pyridyl)pyrimidin-4-yl]amino]pyrimidin-2-yl]amino]pyridine-4-carboxylate]: the Ki in assay [1] was 3.98 to 31.6 nM. For the same compound, in assay [2], the IC50 was 25.1 to 158 nM.

Consider `Cc1cccc(-c2nccc(Nc3ccnc(Nc4cc(C(=O)OC5CCNCC5)ccn4)n3)n2)n1` [Compound 633, 4-piperidyl 2-[[4-[[2-(6-methyl-2-pyridyl)pyrimidin-4-yl]amino]pyrimidin-2-yl]amino]pyridine-4-carboxylate], for which the Ki in assay [1] was 3.98 to 31.6 nM. In addition, the IC50 in assay [2] was 200 to 1260 nM.

On to `Cc1cccc(-c2nccc(Nc3ccnc(Nc4ccc(C(=O)OC5CCNCC5)cn4)n3)n2)n1` [Compound 634, 4-piperidyl 6-[[4-[[2-(6-methyl-2-pyridyl)pyrimidin-4-yl]amino]pyrimidin-2-yl]amino]pyridine-3-carboxylate], for which the Ki in assay [1] was 3.98 to 31.6 nM. Further, in assay [2], the IC50 is 25.1 to 158 nM.

For `Cc1cccc(-c2nccc(Nc3ccnc(Nc4csc(C(=O)OC[C@@H]5CCC[C@@H](N)C5)c4)n3)n2)n1` [Compound 635, [(1R,3R)-3-aminocyclohexyl]methyl 4-[[4-[[2-(6-methyl-2-pyridyl)pyrimidin-4-yl]amino]pyrimidin-2-yl]amino]thiophene-2-carboxylate], the Ki in assay [1] is 0.0398 to 0.316 nM. Besides, the IC50 in assay [2] was 25.1 to 158 nM.

On to `Cc1cccc(-c2nccc(Nc3ccnc(Nc4cc(C(=O)O)ccn4)n3)n2)n1` [Compound 636, 2-[[4-[[2-(6-methyl-2-pyridyl)pyrimidin-4-yl]amino]pyrimidin-2-yl]amino]pyridine-4-carboxylic acid], for which the Ki in assay [1] is 3.98 to 31.6 nM. Further, the IC50 in assay [2] was 1580 to 10000 nM.

For `Cc1cccc(-c2nccc(Nc3ccnc(Nc4csc(C(=O)OC[C@@H]5CCCN5)c4)n3)n2)n1` [Compound 637, [(2S)-pyrrolidin-2-yl]methyl 4-[[4-[[2-(6-methyl-2-pyridyl)pyrimidin-4-yl]amino]pyrimidin-2-yl]amino]thiophene-2-carboxylate], the Ki in assay [1] is 0.0398 to 0.316 nM. The IC50 in assay [2] was 25.1 to 158 nM.

Consider `Cc1cccc(-c2nccc(Nc3ccnc(Nc4csc(C(=O)O[C@H]5C[C@H](N)C5)c4)n3)n2)n1` [Compound 638, (3-aminocyclobutyl) 4-[[4-[[2-(6-methyl-2-pyridyl)pyrimidin-4-yl]amino]pyrimidin-2-yl]amino]thiophene-2-carboxylate], for which the Ki in assay [1] was 0.0398 to 0.316 nM. Besides, the IC50 in assay [2] was 25.1 to 158 nM.

Consider `Cc1cccc(-c2nccc(Nc3ccnc(Nc4csc(C(=O)OC[C@@H]5CCCCN5)c4)n3)n2)n1` [Compound 639, [(2S)-2-piperidyl]methyl 4-[[4-[[2-(6-methyl-2-pyridyl)pyrimidin-4-yl]amino]pyrimidin-2-yl]amino]thiophene-2-carboxylate], for which the Ki in assay [1] was 0.0398 to 0.316 nM. Moreover, the IC50 in assay [2] is 25.1 to 158 nM.

Take `Cc1cccc(-c2nccc(Nc3ccnc(Nc4cncc(C(=O)OC[C@H]5CCCCN5)c4)n3)n2)n1` [Compound 641, [(2R)-2-piperidyl]methyl 5-[[4-[[2-(6-methyl-2-pyridyl)pyrimidin-4-yl]amino]pyrimidin-2-yl]amino]pyridine-3-carboxylate]: the Ki in assay [1] was 0.398 to 3.16 nM. Further, the IC50 in assay [2] was 25.1 to 158 nM.

Consider `Cc1cccc(-c2nccc(Nc3ccnc(Nc4cncc(CN5CC(C(=O)O[C@@H]6CCNC6)C5)c4)n3)n2)n1` [Compound 642, [(3R)-pyrrolidin-3-yl] 1-[[5-[[4-[[2-(6-methyl-2-pyridyl)pyrimidin-4-yl]amino]pyrimidin-2-yl]amino]-3-pyridyl]methyl]azetidine-3-carboxylate], for which, in assay [1], the Ki was 0.0398 to 0.316 nM. Further, in assay [2], the IC50 is 25.1 to 158 nM.

In the case of `Cc1cccc(-c2cccc(Nc3ccnc(Nc4ccc(N5CCOCC5)cc4)n3)n2)n1` [Compound 1000, N4-[6-(6-methyl-2-pyridyl)-2-pyridyl]-N2-(4-morpholinophenyl)pyrimidine-2,4-diamine], the Ki in assay [1] is 3.98 to 31.6 nM. In addition, the IC50 in assay [2] was 25.1 to 158 nM.

Consider `Cc1cccc(-c2cc(Nc3ccnc(Nc4ccc(N5CCOCC5)cc4)n3)c3cc[nH]c3n2)n1` [Compound 1001, N4-[6-(6-methyl-2-pyridyl)-1H-pyrrolo[2,3-b]pyridin-4-yl]-N2-(4-morpholinophenyl)pyrimidine-2,4-diamine], for which the Ki in assay [1] was 0.398 to 3.16 nM. For the same compound, the IC50 in assay [2] is 200 to 1260 nM.

Consider `Cc1cccc(-c2nc(Nc3ccnc(Nc4ccc(N5CCOCC5)cc4)n3)ccc2C#N)n1` [Compound 1003, 2-(6-methyl-2-pyridyl)-6-[[2-(4-morpholinoanilino)pyrimidin-4-yl]amino]pyridine-3-carbonitrile], for which the Ki in assay [1] is 3.98 to 31.6 nM. Besides, the IC50 in assay [2] is 200 to 1260 nM.

As for `CCNC(=O)Cc1cc(Nc2ccnc(Nc3ccc(N4CCNCC4)cc3)n2)nc(-c2cccc(C)n2)n1` [Compound 1006, N-ethyl-2-[2-(6-methyl-2-pyridyl)-6-[[2-(4-piperazin-1-ylanilino)pyrimidin-4-yl]amino]pyrimidin-4-yl] acetamide], the Ki in assay [1] is 0.398 to 3.16 nM. Also, the IC50 in assay [2] is 200 to 1260 nM.

As to `Cc1cccc(-c2nc(CC(=O)NCC(C)C)cc(Nc3ccnc(Nc4ccc(N5CCNCC5)cc4)n3)n2)n1` [Compound 1009, N-isobutyl-2-[2-(6-methyl-2-pyridyl)-6-[[2-(4-piperazin-1-ylanilino)pyrimidin-4-yl]amino]pyrimidin-4-yl] acetamide], the Ki in assay [1] was 0.398 to 3.16 nM. Further, in assay [2], the IC50 is 200 to 1260 nM.

As for `COC(=O)c1cc(Nc2ccnc(Nc3ccc(N4CCN(C)CC4)cc3)n2)nc(-c2cccc(C)n2)n1` [Compound 1010, methyl 6-[[2-[4-(4-methylpiperazin-1-yl)anilino]pyrimidin-4-yl]amino]-2-(6-methyl-2-pyridyl)pyrimidine-4-carboxylate], the Ki in assay [1] was 0.0398 to 0.316 nM. The IC50 in assay [2] is 200 to 1260 nM.

In the case of `Cc1cccc(-c2nc(Nc3ccnc(Nc4ccc(N5CCNCC5)cc4)n3)cc(-c3c[nH]nn3)n2)n1` [Compound 1012, N4-[2-(6-methyl-2-pyridyl)-6-(1H-triazol-4-yl)pyrimidin-4-yl]-N2-(4-piperazin-1-ylphenyl)pyrimidine-2,4-diamine], in assay [1], the Ki was 0.0398 to 0.316 nM. Further, in assay [2], the IC50 was 1580 to 10000 nM.

Regarding `Fc1ccc(Cl)cc1-c1ncc(C2CC2)c(Nc2ccnc(Nc3ccc(N4CCNCC4)cc3)n2)n1` [Compound 1013, N4-[2-(5-chloro-2-fluoro-phenyl)-5-cyclopropyl-pyrimidin-4-yl]-N2-(4-piperazin-1-ylphenyl)pyrimidine-2,4-diamine], in assay [1], the Ki was 0.0398 to 0.316 nM. Besides, in assay [2], the IC50 was 200 to 1260 nM.

`Cc1cccc(-c2nc(Nc3ccnc(Nc4ccc(N)cc4)n3)c3cccn3n2)n1` [Compound 1015, N2-(4-aminophenyl)-N4-[2-(6-methyl-2-pyridyl)pyrrolo[2,1-f][1,2,4]triazin-4-yl]pyrimidine-2,4-diamine]: the Ki in assay [1] is 0.0398 to 0.316 nM. In addition, the IC50 in assay [2] was 25.1 to 158 nM.

For `Cc1cccc(-c2nc(Nc3ccnc(Nc4ccc(NCC5CNC5)cc4)n3)c3cccn3n2)n1` [Compound 1016, N2-[4-(azetidin-3-ylmethylamino)phenyl]-N4-[2-(6-methyl-2-pyridyl)pyrrolo[2,1-f][1,2,4]triazin-4-yl]pyrimidine-2,4-diamine], the Ki in assay [1] is 0.0398 to 0.316 nM. In addition, the IC50 in assay [2] is 25.1 to 158 nM.

Regarding `Cc1cccc(-c2nc(Nc3ccnc(Nc4cccc(C(=O)O)c4)n3)c3cccn3n2)n1` [Compound 1017, 3-[[4-[[2-(6-methyl-2-pyridyl)pyrrolo[2,1-f][1,2,4]triazin-4-yl]amino]pyrimidin-2-yl]amino]benzoic acid], in assay [1], the Ki was 0.398 to 3.16 nM. Further, the IC50 in assay [2] was 200 to 1260 nM.

As to `Cc1cccc(-c2nc(Nc3ccnc(Nc4ccc(CC(=O)O)cc4)n3)c3cccn3n2)n1` [Compound 1018, 2-[4-[[4-[[2-(6-methyl-2-pyridyl)pyrrolo[2,1-f][1,2,4]triazin-4-yl]amino]pyrimidin-2-yl]amino]phenyl]acetic acid], the Ki in assay [1] is 0.0398 to 0.316 nM. Moreover, in assay [2], the IC50 is 25.1 to 158 nM.

On to `COC(=O)Cc1ccc(Nc2nccc(Nc3nc(-c4cccc(C)n4)nn4cccc34)n2)cc1` [Compound 1019, methyl 2-[4-[[4-[[2-(6-methyl-2-pyridyl)pyrrolo[2,1-f][1,2,4]triazin-4-yl]amino]pyrimidin-2-yl]amino]phenyl]acetate], for which, in assay [1], the Ki was 0.398 to 3.16 nM. Besides, the IC50 in assay [2] was 200 to 1260 nM.

Take `Cc1cccc(-c2nc(Nc3ccnc(Nc4ccc(C(=O)O)cn4)n3)c3cccn3n2)n1` [Compound 1020]: the Ki in assay [1] was 3.98 to 31.6 nM. For the same compound, the IC50 in assay [2] was 200 to 1260 nM.

Take `Cc1cccc(-c2nc(Nc3ccnc(Nc4ccc(C(=O)O)cc4)n3)c3cccn3n2)n1` [Compound 1021, 4-[[4-[[2-(6-methyl-2-pyridyl)pyrrolo[2,1-f][1,2,4]triazin-4-yl]amino]pyrimidin-2-yl]amino]benzoic acid]: the Ki in assay [1] was 0.398 to 3.16 nM. The IC50 in assay [2] is 25.1 to 158 nM.
